Data on eight molecules can be found in patent publication US12351582B2, “Aurora kinase inhibitors and uses thereof” (WIGEN BIOMEDICINE TECHNOLOGY (SHANGHAI) CO., LTD., priority 2019, dated 2025).

pIC50: −log10 of the molar value.

One data set concerns H1975 cells. The data set can be described thus: H1975 proliferation assay. The class given is cell-based. The settings on record: Homo sapiens, NCI-H1975; 72 hours incubation, cell survival through ATP quantification. As to the method:
Cells were allowed to attach overnight and compounds were added to the cells for a further incubation of 72 hours. […] of CTL was added afterwards to measure cell survival through ATP quantification.

In a further data set the target is Aurora-B (Homo sapiens, UniProt Q96GD4). The data set can be described thus: Aurora kinase activity assay (Caliper mobility shift), Aurora B. The class given is biochemical. The settings on record: recombinant Aurora kinase, FAM labeled peptide substrate. As to the method: (§1) The Caliper mobility shift assay was used to measure compound activity towards aurora kinase. 10 different concentrations of compounds were prepared by three-fold serial dilutions. Recombinant Aurora kinases in kinase buffer (20 mM HEPES, pH 7.5, 0.01% Triton X-100) were incubated with compounds for 10 minutes at room temperature. FAM labeled peptide substrates were subsequently added to initiate the reaction at 25° C. Conversion rates were measured by caliper after the reactions were terminated. […] Data were normalized to that of the vehicle control, and percentage of inhibition and IC50 were calculated.
Chain of Aurora-B (Q96GD4 whole entry): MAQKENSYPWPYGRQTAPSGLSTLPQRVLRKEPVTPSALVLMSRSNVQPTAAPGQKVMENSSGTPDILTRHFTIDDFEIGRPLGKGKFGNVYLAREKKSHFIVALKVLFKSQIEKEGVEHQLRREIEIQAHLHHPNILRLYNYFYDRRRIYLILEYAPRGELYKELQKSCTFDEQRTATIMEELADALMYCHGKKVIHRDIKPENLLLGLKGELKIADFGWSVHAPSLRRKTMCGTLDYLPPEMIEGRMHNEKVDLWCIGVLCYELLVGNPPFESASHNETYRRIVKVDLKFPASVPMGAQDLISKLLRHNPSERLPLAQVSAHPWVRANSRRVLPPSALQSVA

For another data set, the target named is T1, Aurora-A (Homo sapiens, UniProt O14965).
T1 sequence (O14965 1-403): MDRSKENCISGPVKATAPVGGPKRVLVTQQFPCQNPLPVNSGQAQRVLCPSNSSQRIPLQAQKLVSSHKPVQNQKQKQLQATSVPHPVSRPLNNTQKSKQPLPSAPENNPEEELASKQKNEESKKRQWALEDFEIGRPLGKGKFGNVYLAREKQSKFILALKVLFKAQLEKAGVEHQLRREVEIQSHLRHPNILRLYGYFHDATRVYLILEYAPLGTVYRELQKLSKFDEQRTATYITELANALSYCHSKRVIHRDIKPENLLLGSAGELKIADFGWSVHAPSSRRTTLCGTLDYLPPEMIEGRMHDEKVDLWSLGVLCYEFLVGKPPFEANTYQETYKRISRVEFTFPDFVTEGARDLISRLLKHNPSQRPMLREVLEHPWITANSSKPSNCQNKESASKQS
The data set is described as follows: Aurora kinase activity assay (Caliper mobility shift), Aurora A. The class given is biochemical. The settings on record: for IC50: recombinant Aurora kinase, FAM labeled peptide substrate. On the procedure:
as §1

The subject of another data set is H69 xenograft. The data set is described as follows: In vivo anti-tumor growth in H69 mouse xenografts. Also on record: species or system nude mouse. The settings on record: for RTV (relative tumor volume, Vt/V0) / T/C / TGI (%) / Body weight (g) D1 / Tumor volume (mm^3) D1 / Body weight (g) D21 / Tumor volume (mm^3) D21: H69 xenograft, bid*21, oral; for Body weight (g) D1 / Tumor volume (mm^3) D1: D1 first day of treatment; for Body weight (g) D21 / Tumor volume (mm^3) D21: D21 last day of treatment. As to the method: Cells were passaged and harvested by trypsinization. 1×10^7 H69 cells were implanted in the left armpit of nude mouse. […] Tumor volume and body weight were measured every other day. Mice were sacrificed on day 21 of treatment. Relative tumor volume (RTV) and tumor growth (T/C), and tumor growth inhibition (TGI) were calculated and analyzed statistically.

The test system of a further data set is H1975 xenograft. The data set is described as follows: In vivo anti-tumor growth in H1975 mouse xenografts. Also on record: species or system nude mice. On the procedure: Cells were passaged and harvested by trypsinization. 8×10^6 cells were implanted in the left armpit of nude mice. […] Tumor volume and body weight were monitored every other day. Mice were sacrificed on day 21 of treatment. Relative tumor volume (RTV) and tumor growth (T/C), and tumor growth inhibition (TGI) were calculated and analyzed.

The mark [1] stands for this setting: Dosage 60, qd*21, oral gavage, D1 first day of treatment.
The mark [2] stands for this setting: Dosage 60, qd*21, oral gavage, D21 last day of treatment.

In the case of `CC1CC(Cc2nc(Nc3nccs3)ccc2F)(C(=O)O)CCN1Cc1cccc(Cl)c1F` (racemic) [Compound 1, 1-(3-chloro-2-fluorobenzyl)-4-((3-fluoro-6-(thiazol-2-ylamino)pyridin-2-yl)methyl)-2-methylpiperidine-4-carboxylic acid], the pIC50 with H1975 cells is 7.66. For the same molecule, the IC50 was found to be 20 nM on Aurora-B and 0.64 nM on Aurora-A.

In turn, `C[C@@H]1C[C@](Cc2nc(Nc3nccs3)ccc2F)(C(=O)O)CCN1Cc1cccc(Cl)c1F` [Compound 1-1, (2R,4R)-1-(3-chloro-2-fluorobenzyl)-4-((3-fluoro-6-(thiazol-2-ylamino)pyridin-2-yl)methyl)-2-methylpiperidine-4-carboxylic acid] had a pIC50 in the data set with H1975 cells of 7.92. Moreover, the 50% inhibitory concentration (IC50) on Aurora-B was found to be 16 nM. Moreover, the IC50 at Aurora-A was 0.4 nM. Moreover, the “potency in words (comment on Table 2)” value at Aurora-A (towards Aurora-A, Aurora-B and H1975) is “more potent than its racemic mixture”. In addition, the “H69 tumor growth in words (comment on Table 4)” value in the data set with H69 xenograft (2.5, 5 and 10 mg/kg twice daily, compared to LY-3295668) was “blocks H69 tumor growth in a dose dependent manner with markedly improved efficacy compared to LY-3295668”. Also, in the data set on H69 xenograft (2.5 mg/kg), the “RTV (relative tumor volume, Vt/V0)” value was found to be 0.65; the T/C is 20%; the “TGI (%)” value is reported as 111.16%; the “Body weight (g) D1” value was determined as 15.99 g. For the same molecule, in the data set with H69 xenograft (2.5 mg/kg), the “Tumor volume (mm^3) D1” value came out at 287.46 mm^3, the “Body weight (g) D21” value came to 16.73 g and the “Tumor volume (mm^3) D21” value was found to be 180.58 mm^3. In addition, in the data set with H69 xenograft (5 mg/kg), the “RTV (relative tumor volume, Vt/V0)” value was found to be 0.33; the T/C came to 10%; the “TGI (%)” value is reported as 120.31%; the “Body weight (g) D1” value is on record as 15.91 g. In the data set on H69 xenograft (5 mg/kg), the “Tumor volume (mm^3) D1” value is 284.84 mm^3, the “Body weight (g) D21” value was 16.01 g and the “Tumor volume (mm^3) D21” value is recorded as 90.43 mm^3. Further, in the data set with H69 xenograft (10 mg/kg), the “RTV (relative tumor volume, Vt/V0)” value is recorded as 0.37; the T/C was 11%; the “TGI (%)” value is on record as 120.34%; the “Body weight (g) D1” value came to 16.16 g. For the same molecule, in the data set on H69 xenograft (10 mg/kg), the “Tumor volume (mm^3) D1” value was 287.92 mm^3, the “Body weight (g) D21” value amounted to 16.19 g and the “Tumor volume (mm^3) D21” value is 93.16 mm^3.

In the data set with H1975 cells, `CC1CC(Cc2nc(Nc3nccs3)ccc2F)(C(=O)O)CCN1Cc1ccnc(Cl)c1F` (stereo not shown) [Compound 3, 1-((2-chloro-3-fluoropyridin-4-yl)methyl)-4-((3-fluoro-6-(thiazol-2-ylamino)pyridin-2-yl)methyl)-2-methylpiperidine-4-carboxylic acid] had a pIC50 of 6.71. Also, the concentration for half-maximal inhibition (IC50) on Aurora-B was found to be 321 nM; on Aurora-A, 0.73 nM.

As to `CC1CC(Cc2nc(Nc3nccs3)ccc2F)(C(=O)O)CCN1Cc1cccc2c1OC(F)(F)O2` (stereo not shown) [Compound 7, 1-((2,2-difluorobenzo[d][1,3]dioxol-4-yl)methyl)-4-((3-fluoro-6-(thiazol-2-ylamino)pyridin-2-yl)methyl)-2-methylpiperidine-4-carboxylic acid], the negative logarithm of the IC50 (pIC50) in the data set on H1975 cells was 7.00. Also, the IC50 on Aurora-B came out at 822 nM; at Aurora-A it was 1.1 nM.

Molecule `CC1CC(Cc2nc(Nc3nccs3)ccc2F)(C(=O)O)CCN1C(C)c1cccc(Cl)c1F` (stereo not shown) [Compound 9, 1-(1-(3-chloro-2-fluorophenyl)ethyl)-4-((3-fluoro-6-(thiazol-2-ylamino)pyridin-2-yl)methyl)-2-methylpiperidine-4-carboxylic acid] gave a pIC50 in the data set on H1975 cells of 7.09. In addition, the IC50 at Aurora-B came to 126 nM; at Aurora-A, 0.98 nM.

Consider `[2H]C([2H])(c1cccc(Cl)c1F)N1CCC(Cc2nc(Nc3nccs3)ccc2F)(C(=O)O)CC1C` (stereo not shown) [Compound 13, 1-((3-chloro-2-fluorophenyl)methyl-d2)-4-((3-fluoro-6-(thiazol-2-ylamino)pyridin-2-yl)methyl)-2-methylpiperidine-4-carboxylic acid], for which, in the data set with H1975 cells, the pIC50 was 7.60. In the data set with H1975 xenograft (Dosage 60, qd*21, oral gavage), the “RTV (relative tumor volume, Vt/V0)” value stood at 4.72 and the “TGI (%)” value amounted to 81.07%. In addition, in the data set on H1975 xenograft (setting [1]), the “Body weight (g) D1” value is on record as 17.82 g and the “Tumor volume (mm^3) D1” value is on record as 82.50 mm^3. Further, in the data set on H1975 xenograft (setting [2]), the “Body weight (g) D21” value is listed as 19.00 g and the “Tumor volume (mm^3) D21” value is 373.74 mm^3. The T/C in the data set with H1975 xenograft (Dosage 60, qd*21, oral gavage, TRTV/CRTV × 100) came out at 24.11%. For the same molecule, in the data set with H1975 xenograft (compared with LY-3295668), the “activity in vivo in words (comment on Table 3)” value is on record as “shows greater activity in vivo”. Besides, the IC50 at Aurora-B was 15 nM. Moreover, the IC50 at Aurora-A worked out at 0.74 nM.

Molecule `CC1(C)CC(Cc2nc(Nc3nccs3)ccc2F)(C(=O)O)CCN1Cc1cccc(Cl)c1F` (stereo not shown) [Compound 20, 1-(3-chloro-2-fluorobenzyl)-4-((3-fluoro-6-(thiazol-2-ylamino)pyridin-2-yl)methyl)-2,2-dimethylpiperidine-4-carboxylic acid] had a pIC50 with H1975 cells of 6.81. The IC50 turned out to be 435 nM at Aurora-B and 1.42 nM at Aurora-A.

Turning to `Cc1cc(Nc2ccc(F)c(CC3(C(=O)O)CCN(C(=O)c4cccc(Cl)c4F)C(C)C3)n2)n[nH]1` (stereo not shown) [Compound 22, 1-(3-chloro-2-fluorobenzoyl)-4-((3-fluoro-6-((5-methyl-1H-pyrazol-3-yl)amino)pyridin-2-yl)methyl)-2-methylpiperidine-4-carboxylic acid], in the data set on H1975 cells, the pIC50 was 6.81. In addition, the IC50 on Aurora-B is 1140 nM; on Aurora-A, 1.21 nM.

By pIC50 is commonly meant the IC50 on a negative log10 scale, so that one unit is a factor of ten. Usually IC50 stands for the concentration that gives 50% inhibition. The T/C is the result in the treated group divided by that in the control group, in per cent.
